Molecules are shown by their SMILES.

Holding throughout (assay type): biochemical
The target of one test is T1, NUAK2 (h) (Homo sapiens, UniProt Q9H093).
T1 construct: This assay was done radiometrically using full-length, recombinant enzyme; purchased Eurofins
T1 sequence (Q9H093 1-628): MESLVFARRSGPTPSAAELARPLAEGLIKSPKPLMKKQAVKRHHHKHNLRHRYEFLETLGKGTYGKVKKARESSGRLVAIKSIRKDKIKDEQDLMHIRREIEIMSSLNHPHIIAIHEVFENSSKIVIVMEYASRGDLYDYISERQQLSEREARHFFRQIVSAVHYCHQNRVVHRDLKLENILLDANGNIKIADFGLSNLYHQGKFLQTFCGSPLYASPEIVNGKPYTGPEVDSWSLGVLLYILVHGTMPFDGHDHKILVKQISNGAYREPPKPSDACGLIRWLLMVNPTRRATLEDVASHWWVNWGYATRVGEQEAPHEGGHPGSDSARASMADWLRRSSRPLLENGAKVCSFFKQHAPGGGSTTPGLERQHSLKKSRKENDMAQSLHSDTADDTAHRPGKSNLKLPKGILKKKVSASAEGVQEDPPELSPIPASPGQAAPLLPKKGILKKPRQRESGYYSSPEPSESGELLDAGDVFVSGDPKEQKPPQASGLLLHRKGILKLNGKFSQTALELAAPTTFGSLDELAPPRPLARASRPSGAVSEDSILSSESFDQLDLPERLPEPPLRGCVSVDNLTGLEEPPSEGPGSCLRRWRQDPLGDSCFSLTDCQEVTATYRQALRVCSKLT
Kind of test: NUAK2 enzymatic assay (radiometric, Eurofins). To be noted: full-length recombinant enzyme. How it is done: (§1) To identify small molecule NUAK inhibitors, a biochemical NUAK2 enzymatic assay were outsourced to Eurofins. This assay was done radiometrically using full-length, recombinant enzyme. NUAK2 (h) was incubated with 8 mM MOPS pH 7.0, 0.2 mM EDTA, 300 μM […], 10 mM magnesium acetate and […] (specific activity and concentration as required). The reaction was initiated by the addition of the Mg/ATP mix. After incubation for 40 minutes at room temperature, the reaction was stopped by the addition of phosphoric acid to a concentration of 0.5%. 10 μL of the reaction was then spotted onto a P30 filtermat and washed four times for 4 minutes in 0.425% phosphoric acid and once in methanol prior to drying and scintillation counting. Compounds were routinely counter-screened against Aurora A and NUAK1. The results are shown in Table 1 where IC50's are reported in the following ranges: A: 0.1-10 nM; B: 11-100 nM; C: 101-1000 nM; D: >1000 nM for the compounds of Formula (I)

The target in the next test is T2, NUAK1 (Homo sapiens, UniProt O60285).
T2 sequence (O60285 1-661): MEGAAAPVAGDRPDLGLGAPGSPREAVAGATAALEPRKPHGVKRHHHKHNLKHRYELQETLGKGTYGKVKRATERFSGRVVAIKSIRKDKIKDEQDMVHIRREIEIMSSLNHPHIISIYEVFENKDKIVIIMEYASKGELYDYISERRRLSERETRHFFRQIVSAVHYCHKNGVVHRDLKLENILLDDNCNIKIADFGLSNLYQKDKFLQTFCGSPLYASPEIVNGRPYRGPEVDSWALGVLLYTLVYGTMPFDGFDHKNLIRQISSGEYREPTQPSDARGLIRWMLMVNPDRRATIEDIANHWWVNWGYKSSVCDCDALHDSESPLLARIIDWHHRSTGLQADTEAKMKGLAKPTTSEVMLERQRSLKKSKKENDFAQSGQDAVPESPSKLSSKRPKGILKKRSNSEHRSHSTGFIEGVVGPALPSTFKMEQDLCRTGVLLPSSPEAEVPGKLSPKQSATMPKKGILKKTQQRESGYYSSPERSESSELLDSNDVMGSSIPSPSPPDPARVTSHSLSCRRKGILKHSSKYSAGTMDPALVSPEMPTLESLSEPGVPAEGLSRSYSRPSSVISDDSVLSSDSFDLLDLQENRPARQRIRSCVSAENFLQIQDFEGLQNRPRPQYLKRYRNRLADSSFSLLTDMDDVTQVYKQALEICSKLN
Kind of test: Counter-screen against NUAK1. The procedure:
as §1
(The purpose of a counterscreen is to sort out artefacts and off-target activity.)

Another test concerns the target T3, Aurora A (Homo sapiens, UniProt O14965).
T3 sequence (O14965 1-403): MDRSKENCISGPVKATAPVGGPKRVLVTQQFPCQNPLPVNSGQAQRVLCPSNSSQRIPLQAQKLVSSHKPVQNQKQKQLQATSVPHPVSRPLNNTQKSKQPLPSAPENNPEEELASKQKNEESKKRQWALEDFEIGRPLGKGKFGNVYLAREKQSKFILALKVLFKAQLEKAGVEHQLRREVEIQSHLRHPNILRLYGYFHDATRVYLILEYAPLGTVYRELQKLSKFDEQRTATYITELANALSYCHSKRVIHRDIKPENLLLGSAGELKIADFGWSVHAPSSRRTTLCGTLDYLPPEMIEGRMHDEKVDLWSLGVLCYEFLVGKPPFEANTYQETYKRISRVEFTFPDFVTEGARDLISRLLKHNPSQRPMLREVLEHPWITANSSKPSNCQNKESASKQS
Kind of test: Counter-screen against Aurora A. The settings on record: read-out: AUR-A (IC50). The procedure:
as §1

With `O=C1NCc2cccc(Nc3nc(Nc4ccc(N5C[C@H]6C[C@@H]5CN6)cc4OC(F)F)ncc3C(F)(F)F)c21` [Compound I-71, 7-((2-((4-((1R,4R)-2,5-diazabicyclo[2.2.1]heptan-2-yl)-2-(difluoromethoxy)phenyl)amino)-5-(trifluoromethyl)pyrimidin-4-yl)amino)isoindolin-1-one], the values for the 50% inhibitory concentration (IC50) on NUAK2 (h), at NUAK1 and on Aurora A were 0.0001 to 0.01 µM, 0.011 to 0.1 µM and 0.101 to 1 µM, respectively.

On to `CN1CCN(c2ccc(Nc3ncc(C(F)(F)F)c(Nc4cccc5c4C(=O)NC5)n3)c(OC(F)(F)F)c2)CC1` [Compound I-53, 7-((2-((4-(4-methylpiperazin-1-yl)-2-(trifluoromethoxy)phenyl)amino)-5-(trifluoromethyl)pyrimidin-4-yl)amino)isoindolin-1-one], for which the half-inhibitory concentration (IC50) at NUAK2 (h) was 0.011 to 0.1 µM; against NUAK1, 0.101 to 1 µM; on Aurora A it was more than 1 µM.

As for `COc1cc2c(cc1Nc1ncc(Cl)c(Nc3cccc4c3C(=O)NC4)n1)CN(C)CC2(C)C` [Compound I-16, 7-((5-chloro-2-((6-methoxy-2,4,4-trimethyl-1,2,3,4-tetrahydroisoquinolin-7-yl)amino)pyrimidin-4-yl)amino)isoindolin-1-one], the results for the IC50 at NUAK2 (h), against NUAK1 and on Aurora A were 0.011 to 0.1 µM, 0.011 to 0.1 µM and more than 1 µM, respectively.

With `O=C1NCc2cccc(Nc3nc(Nc4ccc(N5C[C@@H]6C[C@H]5CN6)cc4OC(F)F)ncc3Cl)c21` [Compound I-66, 7-((2-((4-((1S,4S)-2,5-diazabicyclo[2.2.1]heptan-2-yl)-2-(difluoromethoxy)phenyl)amino)-5-chloropyrimidin-4-yl)amino)isoindolin-1-one], the 50% inhibitory concentration (IC50) at NUAK2 (h) is 0.0001 to 0.01 µM; on NUAK1, 0.011 to 0.1 µM; at Aurora A, 0.101 to 1 µM.

As for `CC(C)N1CCN(C2CCN(c3ccc(Nc4ncc(Cl)c(Nc5cccc6c5C(=O)NC6)n4)c(OC(F)F)c3)CC2)CC1` [Compound I-81, 7-((5-chloro-2-((2-(difluoromethoxy)-4-(4-(4-isopropylpiperazin-1-yl)piperidin-1-yl)phenyl)amino)pyrimidin-4-yl)amino)isoindolin-1-one], the half-inhibitory concentration (IC50) on NUAK2 (h) is 0.011 to 0.1 µM; against NUAK1, 0.011 to 0.1 µM; on Aurora A it was 0.101 to 1 µM.

For the molecule `O=C1NCc2cccc(Nc3nc(Nc4ccc(N5CCC(N6CCNCC6)CC5)cc4OC(F)F)ncc3C(F)(F)F)c21` [Compound I-40, 7-((2-((2-(difluoromethoxy)-4-(4-(piperazin-1-yl)piperidin-1-yl)phenyl)amino)-5-(trifluoromethyl)pyrimidin-4-yl)amino)isoindolin-1-one], the values for the IC50 on NUAK2 (h), on NUAK1 and at Aurora A were 0.0001 to 0.01 µM, 0.011 to 0.1 µM and 0.101 to 1 µM, respectively.

For `COc1cc2c(cc1Nc1ncc(OC)c(Nc3cccc4c3C(=O)NC4)n1)CCNC2` [Compound I-47, 7-((5-methoxy-2-((7-methoxy-1,2,3,4-tetrahydroisoquinolin-6-yl)amino)pyrimidin-4-yl)amino)isoindolin-1-one], the IC50 on NUAK2 (h) is 0.011 to 0.1 µM; against NUAK1 it was 0.101 to 1 µM; at Aurora A it was more than 1 µM.

In the case of `COc1cc(CN(C)C)ccc1Nc1ncc(Cl)c(Nc2ccc(F)c3c2C(=O)NC3)n1` [Compound I-85, 7-((5-chloro-2-((4-((dimethylamino)methyl)-2-methoxyphenyl)amino)pyrimidin-4-yl)amino)-4-fluoroisoindolin-1-one], the IC50 was 0.011 to 0.1 µM on NUAK2 (h) and more than 1 µM at Aurora A.

On to `CN1CCN(c2ccc(Nc3ncc(Cl)c(Nc4ccc(F)c5c4C(=O)NC5)n3)c(OC(F)F)c2)CC1` [Compound I-84, 7-((5-chloro-2-((2-(difluoromethoxy)-4-(4-methylpiperazin-1-yl)phenyl)amino)pyrimidin-4-yl)amino)-4-fluoroisoindolin-1-one], for which the half-inhibitory concentration (IC50) on NUAK2 (h) is 0.0001 to 0.01 µM; on Aurora A, more than 1 µM.

For orientation: IC50 means the midpoint of a concentration-inhibition curve.

For the origin of these results see patent publication US12643886B2 (Ontario Institute for Cancer Research (OICR), priority 2021, dated 2026).
